Measurements: the NIST ThermoML archive (doi:10.1016/j.jct.2017.08.004)

Experiment: molar heat capacity at constant pressure
Conditions: 101.33 kPa, Crystal

OC[C@@H](O)[C@@H](O)[C@H](O)[C@H](O)CO [D-mannitol]
molar heat capacity at constant pressure [J/K/mol]
Conditions | Small sample (50 mg) DSC | relaxation calorimetry
1 K | – | 0.001199
1.923 K | – | 0.006707
2 K | – | 0.007583
2.139 K | – | 0.009192
2.373 K | – | 0.01256
2.634 K | – | 0.01689
2.928 K | – | 0.02301
3 K | – | 0.02469
3.249 K | – | 0.03152
3.602 K | – | 0.04303
3.997 K | – | 0.05809
4 K | – | 0.05872
4.435 K | – | 0.07904
4.92 K | – | 0.1115
5 K | – | 0.1167
5.459 K | – | 0.1535
6 K | – | 0.2067
6.057 K | – | 0.2121
6.719 K | – | 0.2951
7 K | – | 0.3376
7.454 K | – | 0.4159
8 K | – | 0.5187
8.269 K | – | 0.5829
9 K | – | 0.7614
9.171 K | – | 0.8041
10 K | – | 1.071
10.2 K | – | 1.131
11.29 K | – | 1.565
12.52 K | – | 2.163
13.89 K | – | 2.945
15 K | – | 3.67
15.42 K | – | 3.976
17.11 K | – | 5.278
18.99 K | – | 6.927
20 K | – | 7.832
21.08 K | – | 8.9
23.4 K | – | 11.29
25 K | – | 13.01
25.98 K | – | 14.06
28.84 K | – | 17.28
30 K | – | 18.66
32.02 K | – | 20.91
35 K | – | 24.4
35.55 K | – | 25.01
39.45 K | – | 29.53
40 K | – | 30.07
43.79 K | – | 34.41
45 K | – | 35.64
48.59 K | – | 39.53
50 K | – | 41.11
53.92 K | – | 45.29
55 K | – | 46.48
59.84 K | – | 51.45
60 K | – | 51.67
65 K | – | 56.63
66.4 K | – | 58.03
70 K | – | 61.48
73.71 K | – | 64.84
75 K | – | 66.19
80 K | – | 70.77
81.8 K | – | 72.99
85 K | – | 75.22
90 K | – | 79.54
90.8 K | – | 80.09
95 K | – | 83.75
100 K | – | 87.87
100.74 K | – | 87.67
110 K | – | 95.83
110.88 K | – | 96.15
120 K | – | 103.5
120.83 K | – | 104.57
130 K | – | 110.93
130.91 K | – | 112.04
140 K | – | 118.19
140.97 K | – | 119.24
150 K | – | 125.32
151.12 K | – | 126.15
160 K | – | 132.36
161.2 K | – | 133.18
170 K | – | 139.33
171.28 K | – | 140.05
180 K | – | 146.27
181.37 K | – | 147.35
188.15 K | 143.51 | –
189.15 K | 144.52 | –
190 K | – | 153.2
190.15 K | 145.73 | –
191.15 K | 146.73 | –
191.44 K | – | 154.23
192.15 K | 147.51 | –
193.15 K | 148.54 | –
194.15 K | 149.99 | –
195.15 K | 151.06 | –
196.15 K | 152.24 | –
197.15 K | 153.48 | –
198.15 K | 154.54 | –
199.15 K | 155.53 | –
200 K | – | 160.12
200.15 K | 156.46 | –
201.15 K | 157.4 | –
201.56 K | – | 160.73
202.15 K | 158.14 | –
203.15 K | 158.99 | –
204.15 K | 159.96 | –
205.15 K | 160.76 | –
206.15 K | 161.64 | –
207.15 K | 162.47 | –
208.15 K | 163.24 | –
209.15 K | 163.78 | –
210 K | – | 167.07
210.15 K | 164.68 | –
211.15 K | 165.46 | –
211.67 K | – | 167.61
212.15 K | 166.24 | –
213.15 K | 167.09 | –
214.15 K | 167.92 | –
215.15 K | 168.49 | –
216.15 K | 169.55 | –
217.15 K | 170.24 | –
218.15 K | 170.94 | –
219.15 K | 171.88 | –
220 K | – | 174.05
220.15 K | 172.81 | –
221.15 K | 173.38 | –
221.78 K | – | 175.44
222.15 K | 174.15 | –
223.15 K | 174.98 | –
224.15 K | 175.72 | –
225.15 K | 176.52 | –
226.15 K | 177.3 | –
227.15 K | 177.96 | –
228.15 K | 178.66 | –
229.15 K | 179.32 | –
230 K | – | 181.07
230.15 K | 179.98 | –
231.15 K | 180.68 | –
231.88 K | – | 182.4
232.15 K | 181.3 | –
233.15 K | 182.34 | –
234.15 K | 182.94 | –
235.15 K | 183.75 | –
236.15 K | 184.67 | –
237.15 K | 185.22 | –
238.15 K | 186 | –
239.15 K | 186.79 | –
240 K | – | 188.14
240.15 K | 187.46 | –
241.15 K | 188.04 | –
241.89 K | – | 189.63
242.15 K | 188.69 | –
243.15 K | 189.39 | –
244.15 K | 190.16 | –
245.15 K | 190.77 | –
246.15 K | 191.37 | –
247.15 K | 192.19 | –
248.15 K | 192.92 | –
249.15 K | 193.73 | –
250 K | – | 195.26
250.15 K | 194.6 | –
251.15 K | 195.14 | –
252.03 K | – | 197.13
252.15 K | 195.91 | –
253.15 K | 196.71 | –
254.15 K | 197.56 | –
255.15 K | 198.46 | –
256.15 K | 199.17 | –
257.15 K | 199.9 | –
258.15 K | 200.87 | –
259.15 K | 201.58 | –
260 K | – | 202.45
260.15 K | 202.15 | –
261.15 K | 203.09 | –
262.09 K | – | 203.85
262.15 K | 203.84 | –
263.15 K | 204.4 | –
264.15 K | 205.1 | –
265.15 K | 205.89 | –
266.15 K | 206.4 | –
267.15 K | 207.11 | –
268.15 K | 207.89 | –
269.15 K | 208.64 | –
270 K | – | 209.71
270.15 K | 209.5 | –
271.15 K | 210.37 | –
272.12 K | – | 211.38
272.15 K | 211.22 | –
273.15 K | 211.63 | 212.01
274.15 K | 212.27 | –
275.15 K | 213.11 | –
276.15 K | 213.85 | –
277.15 K | 214.68 | –
278.15 K | 215.33 | –
279.15 K | 216.09 | –
280 K | – | 217.04
280.15 K | 216.75 | –
281.15 K | 217.54 | –
282.15 K | 218.34 | –
282.18 K | – | 219
283.15 K | 219.11 | –
284.15 K | 219.88 | –
285.15 K | 220.37 | –
286.15 K | 221.11 | –
287.15 K | 221.79 | –
288.15 K | 222.53 | –
